Experimental data taken from patent publication US20240217990A1 (Gilead Sciences, Inc., priority 2021, published 2024).

How the values were obtained:
[1] = molecular target: T1, TLR7 (Homo sapiens, UniProt Q9NYK1); test: TLR7 human PBMC cell-based assay (antagonist, GS-986 stimulated cytokine release); settings: human PBMCs; TLR7 agonist GS-986 400 nM, 6 hours; cytokines (IL-6 and IFNα) in supernatant; read-out: TLR-7 EC50
T1 construct: Human peripheral blood mononuclear cells (PBMCs) consist of lymphocytes, monocytes and dendritic cells that express TLR7, TLR8 and TLR9; endogenous in cells; host or cells: cryopreserved human PBMCs from healthy donors
T1 sequence (Q9NYK1 27-1049): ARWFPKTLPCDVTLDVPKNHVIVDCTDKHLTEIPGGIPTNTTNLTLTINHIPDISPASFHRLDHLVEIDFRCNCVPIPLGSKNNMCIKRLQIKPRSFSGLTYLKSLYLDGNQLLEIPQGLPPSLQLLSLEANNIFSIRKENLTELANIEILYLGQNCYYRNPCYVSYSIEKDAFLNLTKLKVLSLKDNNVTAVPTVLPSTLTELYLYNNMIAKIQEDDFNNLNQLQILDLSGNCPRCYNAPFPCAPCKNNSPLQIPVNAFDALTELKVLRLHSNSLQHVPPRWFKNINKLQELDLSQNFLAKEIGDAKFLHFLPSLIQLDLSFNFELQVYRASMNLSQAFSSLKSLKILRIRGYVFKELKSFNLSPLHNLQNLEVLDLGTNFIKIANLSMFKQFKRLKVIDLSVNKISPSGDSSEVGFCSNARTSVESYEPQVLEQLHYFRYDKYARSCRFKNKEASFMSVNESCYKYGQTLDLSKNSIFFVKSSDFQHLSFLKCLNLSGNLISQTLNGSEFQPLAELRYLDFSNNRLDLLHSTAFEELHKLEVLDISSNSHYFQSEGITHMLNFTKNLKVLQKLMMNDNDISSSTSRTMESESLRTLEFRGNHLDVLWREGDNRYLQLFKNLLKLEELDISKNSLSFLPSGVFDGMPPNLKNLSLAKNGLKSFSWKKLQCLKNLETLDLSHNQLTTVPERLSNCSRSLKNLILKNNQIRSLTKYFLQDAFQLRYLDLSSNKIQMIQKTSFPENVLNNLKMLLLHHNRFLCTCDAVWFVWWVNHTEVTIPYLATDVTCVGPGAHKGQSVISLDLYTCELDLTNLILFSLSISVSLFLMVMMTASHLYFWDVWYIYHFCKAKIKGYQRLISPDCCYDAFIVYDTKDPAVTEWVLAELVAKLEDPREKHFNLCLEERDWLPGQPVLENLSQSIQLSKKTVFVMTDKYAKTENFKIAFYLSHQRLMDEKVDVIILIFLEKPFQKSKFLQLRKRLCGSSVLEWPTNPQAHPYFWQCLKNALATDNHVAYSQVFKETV
Procedure, shortened: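 EC50 derived by sigmoidal fitting of IL-6 and IFNα levels, quantified by electrochemiluminescence in supernatants of human PBMCs given 400 nM GS-986 for 6 h. Cells (100,000/well in RPMI-1640, 10% FBS) had received test antagonist 1 h beforehand, 10 doses in quadruplicate, at 37 °C.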

[2] = molecular target: T2, TLR8 (Homo sapiens, UniProt Q9NR97); test: TLR8 human PBMC cell-based assay (antagonist, Compound A stimulated cytokine release); settings: human PBMCs; TLR8 agonist Compound A 800 nM, 6 hours; cytokines (TNFa and IL 12p40) in supernatant; read-out: TLR-8 EC50
T2 construct: Human peripheral blood mononuclear cells (PBMCs) consist of lymphocytes, monocytes and dendritic cells that express TLR7, TLR8 and TLR9; endogenous in cells; host or cells: cryopreserved human PBMCs from healthy donors
T2 sequence (Q9NR97 27-1041): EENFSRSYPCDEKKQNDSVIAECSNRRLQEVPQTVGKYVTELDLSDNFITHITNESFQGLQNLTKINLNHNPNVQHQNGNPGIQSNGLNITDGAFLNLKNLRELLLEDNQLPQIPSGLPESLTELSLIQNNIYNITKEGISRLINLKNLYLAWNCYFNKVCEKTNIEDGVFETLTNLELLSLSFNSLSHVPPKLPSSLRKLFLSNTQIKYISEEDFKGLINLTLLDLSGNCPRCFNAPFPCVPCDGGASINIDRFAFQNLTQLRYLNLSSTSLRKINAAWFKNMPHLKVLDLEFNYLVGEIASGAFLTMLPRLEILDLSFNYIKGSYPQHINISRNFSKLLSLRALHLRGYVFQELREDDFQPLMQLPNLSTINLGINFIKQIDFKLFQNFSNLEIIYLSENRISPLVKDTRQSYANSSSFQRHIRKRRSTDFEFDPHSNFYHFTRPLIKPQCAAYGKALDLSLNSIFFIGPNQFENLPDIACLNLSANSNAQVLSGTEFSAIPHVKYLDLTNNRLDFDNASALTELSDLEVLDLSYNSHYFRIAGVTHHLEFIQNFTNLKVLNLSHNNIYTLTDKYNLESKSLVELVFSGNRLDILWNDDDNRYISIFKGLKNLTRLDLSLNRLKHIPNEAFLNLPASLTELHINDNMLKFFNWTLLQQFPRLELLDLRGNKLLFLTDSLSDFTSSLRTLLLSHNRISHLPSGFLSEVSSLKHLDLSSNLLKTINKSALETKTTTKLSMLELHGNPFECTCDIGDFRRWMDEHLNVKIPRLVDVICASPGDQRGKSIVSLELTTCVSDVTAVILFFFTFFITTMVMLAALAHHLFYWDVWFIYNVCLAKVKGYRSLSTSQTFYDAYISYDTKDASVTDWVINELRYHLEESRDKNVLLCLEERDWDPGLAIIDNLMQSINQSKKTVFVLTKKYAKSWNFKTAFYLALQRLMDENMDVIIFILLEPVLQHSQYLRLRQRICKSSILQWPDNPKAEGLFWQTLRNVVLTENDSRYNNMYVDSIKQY
Procedure, shortened: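 Cryopreserved donor PBMCs (100,000/well, RPMI + 10% FBS) were preincubated 1 h with antagonist (10-point dose response, quadruplicate), then stimulated with Compound A (800 nM final) for 6 h at 37 °C. TNFa and IL-12p40 in supernatants were measured by electrochemiluminescence; sigmoidal fits gave EC50.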

Structure (SMILES)	EC50 [1] [nM]	EC50 [2] [nM]
Cc1cc(-c2[nH]c3cc(C4CCN(CC5(C)COC5)CC4)sc3c2C(C)C)cn2ncnc12 [Example 186, 6-isopropyl-5-(8-methyl-[1,2,4]triazolo[1,5-a]pyridin-6-yl)-2-(1-((3-methyloxetan-3-yl)methyl)piperidin-4-yl)-4H-thieno[3,2-b]pyrrole]	2.1	3.1
Cc1cc(-c2[nH]c3cc(C4CCN(CCO)CC4)sc3c2C(C)C)cn2ncnc12 [Example 187, 2-(4-(6-isopropyl-5-(8-methyl-[1,2,4]triazolo[1,5-a]pyridin-6-yl)-4H-thieno[3,2-b]pyrrol-2-yl)piperidin-1-yl)ethan-1-ol]	1.6	0.6
Cc1cc(-c2[nH]c3cc(-c4ccc5c(c4)CN(CCO)CC5)sc3c2C(C)C)cn2ncnc12 [Example 188]	1.3	0.3
Cc1cc(-c2[nH]c3cc(-c4cnn(C5CCN(CCO)CC5)c4)sc3c2C(C)C)cn2ncnc12 [Example 189]	1.3	0.7
Cc1cc(-c2[nH]c3cc(-c4cnc5c(c4)CN(CCO)CC5)sc3c2C(C)C)cn2ncnc12 [Example 190]	2.4	0.5
Cc1cc(-c2[nH]c3cc(C4CCC5(CC4)CN(CCO)C5)sc3c2C(C)C)cn2ncnc12 [Example 191]	0.2	1
Cc1c(-c2[nH]c3cc(C(=O)N(C)C4CCN(CCO)CC4)sc3c2C(C)C)cn2ncnc2c1C [Example 192]	1.2	0.5
Cc1cc(CN2CCC(c3cc4[nH]c(-c5cc(C)c6ncnn6c5)c(C(C)C)c4s3)CC2)no1 [Example 193]	18.2	12.3
Cc1cc(-c2[nH]c3cc(C4CCN(Cc5ccn(C)n5)CC4)sc3c2C(C)C)cn2ncnc12 [Example 194]	4.5	0.6
Cc1cc(-c2[nH]c3cc(C4CCN(C5CCC5)CC4)sc3c2C(C)C)cn2ncnc12 [Example 195]	2.5	0.3
Cc1cc(-c2[nH]c3cc(C4CCN(C(=O)CN5CCCC5)CC4)sc3c2C(C)C)cn2ncnc12 [Example 196, 1-(4-(6-isopropyl-5-(8-methyl-[1,2,4]triazolo[1,5-a]pyridin-6-yl)-4H-thieno[3,2-b]pyrrol-2-yl)piperidin-1-yl)-2-(pyrrolidin-1-yl)ethan-1-one]	1.3	4.2
Cc1cc(-c2[nH]c3cc(C4CCN(C(=O)C5(N)CCC5)CC4)sc3c2C(C)C)cn2ncnc12 [Example 197]	33.1	79.7
Cc1cc(-c2[nH]c3cc(C4CCN(C(=O)[C@H]5CCCN5C)CC4)sc3c2C(C)C)cn2ncnc12 [Example 199]	3.9	5.3
Cc1cc(-c2[nH]c3cc(C4CCN(C(=O)[C@@H]5CCCN5C)CC4)sc3c2C(C)C)cn2ncnc12 [Example 200]	3.8	10
Cc1cc(-c2[nH]c3cc(C4CCN(C(=O)C5CCN(C)C5)CC4)sc3c2C(C)C)cn2ncnc12 (centres unmarked) [Example 201]	0.7	8.6
Cc1cc(-c2[nH]c3cc(C4CCN(C(=O)C5CNC5)CC4)sc3c2C(C)C)cn2ncnc12 [Example 202]	1.5	23.8
Cc1cc(-c2[nH]c3cc(C4CCN(C(=O)C5CCCN(C)C5)CC4)sc3c2C(C)C)cn2ncnc12 (centres unmarked) [Example 203]	0.4	5.6

Structure (SMILES)	EC50 [1] [nM]	EC50 [2] [nM]
Cc1cc(-c2[nH]c3cc(C4CCN(C(=O)C5CN6CCC5CC6)CC4)sc3c2C(C)C)cn2ncnc12 (centres unmarked) [Example 204]	0.5	9.9
Cc1cc(-c2[nH]c3cc(C4CCN(C(=O)[C@H]5CCN(C)C5)CC4)sc3c2C(C)C)cn2ncnc12 [Example 205]	0.5	9
Cc1cc(-c2[nH]c3cc(C4CCC5(CC4)CN(C(=O)[C@@H]4CCCN4C)C5)sc3c2C(C)C)cn2ncnc12 [Example 206]	0.3	15.4
Cc1cc(-c2[nH]c3cc(C4CCC5(CC4)CN(C(=O)[C@H]4CCCN4C)C5)sc3c2C(C)C)cn2ncnc12 [Example 207]	0.7	19.9
Cc1cc(-c2[nH]c3cc(C4CCC5(CC4)CN(C(=O)CN4CCCC4)C5)sc3c2C(C)C)cn2ncnc12 [Example 208]	0.3	12.3
Cc1cc(-c2[nH]c3cc(-c4ccc5c(c4)CNC5)sc3c2C(C)C)cn2ncnc12 [Example 209, 2-(isoindolin-5-yl)-6-isopropyl-5-(8-methyl-[1,2,4]triazolo[1,5-a]pyridin-6-yl)-4H-thieno[3,2-b]pyrrole]	15.4	1.7
Cc1cc(-c2[nH]c3cc(-c4ccc(N5CCNCC5)nc4)sc3c2C(C)C)cn2ncnc12 [Example 210]	0.5	2.3
Cc1cc(-c2[nH]c3cc(-c4ccc5c(c4)CNCC5)sc3c2C(C)C)cn2ncnc12 [Example 211]	1.9	0.5
Cc1cc(-c2[nH]c3cc(-c4ccc5nc(C6N[C@@H]7CC[C@H]6C7)[nH]c5c4)sc3c2C(C)C)cn2ncnc12 (some centres unmarked) [Example 212]	0.2	1.6
Cc1cc(-c2[nH]c3cc(-c4cnc5c(c4)CNCC5)sc3c2C(C)C)cn2ncnc12 [Example 213]	0.8	0.2
Cc1cc(-c2[nH]c3cc(-c4ccc(N5CCNCC5)cc4)sc3c2C(C)C)cn2ncnc12 [Example 214]	0.6	2.9
Cc1cc(-c2[nH]c3cc(-c4cnn(C5CCNCC5)c4)sc3c2C(C)C)cn2ncnc12 [Example 215]	0.3	2.3
Cc1cc(N2CCNCC2)ncc1-c1cc2[nH]c(-c3cc(C)c4ncnn4c3)c(C(C)C)c2s1 [Example 216]	0.4	3.1
Cc1nc(N2CCNCC2)ccc1-c1cc2[nH]c(-c3cc(C)c4ncnn4c3)c(C(C)C)c2s1 [Example 217]	0.2	6
Cc1cc(-c2[nH]c3cc(-c4cnc5c(c4)CCNC5)sc3c2C(C)C)cn2ncnc12 [Example 218]	3.3	1
Cc1cc(-c2[nH]c3cc(-c4cnn5c4CNCC5)sc3c2C(C)C)cn2ncnc12 [Example 219]	34.9	4.6
Cc1nn(C2CCNCC2)cc1-c1cc2[nH]c(-c3cc(C)c4ncnn4c3)c(C(C)C)c2s1 [Example 220]	1.2	11.2
